Test [1] concerns Streptococcus sp. 'group A'. The test is described as follows: Streptococcus pyogenes SK(-)GAS viability under kanamycin – luminescence, BacTiterGlo, confirmation, counter-screen for streptokinase expression inhibitor project, dose response (AID 1900). The conditions noted are these: read-out: EC50. Format: functional, organism-based. Background: The purpose of a counterscreen is to sort out artefacts and off-target activity.

Test [2] addresses T1, Streptokinase A (Streptococcus pyogenes serotype M1, UniProt P10520).
T1 sequence (P10520 whole entry): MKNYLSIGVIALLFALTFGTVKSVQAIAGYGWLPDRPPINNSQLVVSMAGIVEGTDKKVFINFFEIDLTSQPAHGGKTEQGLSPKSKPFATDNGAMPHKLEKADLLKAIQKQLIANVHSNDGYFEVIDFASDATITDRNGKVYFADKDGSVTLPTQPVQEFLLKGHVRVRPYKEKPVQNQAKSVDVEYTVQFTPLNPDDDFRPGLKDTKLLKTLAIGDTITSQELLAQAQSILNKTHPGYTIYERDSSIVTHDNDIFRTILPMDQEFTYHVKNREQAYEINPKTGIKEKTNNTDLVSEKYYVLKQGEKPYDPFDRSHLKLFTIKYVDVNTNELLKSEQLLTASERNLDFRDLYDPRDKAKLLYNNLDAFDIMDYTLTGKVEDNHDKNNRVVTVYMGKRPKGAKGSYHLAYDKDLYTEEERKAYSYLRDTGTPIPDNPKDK
The test is described as follows: viability-normalized secreted streptokinase activity reduction – plasminogen activation absorbance, OD405, dose response (AID 1914).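 Further: secreted streptokinase activity via plasminogen activation per viability signal from cell pellet.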 In kind it is functional, Streptococcus pyogenes M1 GAS.

Test [3] deals with T2, Sentrin-specific protease 7 (Homo sapiens, UniProt Q9BQF6).
T2 sequence (Q9BQF6 whole entry): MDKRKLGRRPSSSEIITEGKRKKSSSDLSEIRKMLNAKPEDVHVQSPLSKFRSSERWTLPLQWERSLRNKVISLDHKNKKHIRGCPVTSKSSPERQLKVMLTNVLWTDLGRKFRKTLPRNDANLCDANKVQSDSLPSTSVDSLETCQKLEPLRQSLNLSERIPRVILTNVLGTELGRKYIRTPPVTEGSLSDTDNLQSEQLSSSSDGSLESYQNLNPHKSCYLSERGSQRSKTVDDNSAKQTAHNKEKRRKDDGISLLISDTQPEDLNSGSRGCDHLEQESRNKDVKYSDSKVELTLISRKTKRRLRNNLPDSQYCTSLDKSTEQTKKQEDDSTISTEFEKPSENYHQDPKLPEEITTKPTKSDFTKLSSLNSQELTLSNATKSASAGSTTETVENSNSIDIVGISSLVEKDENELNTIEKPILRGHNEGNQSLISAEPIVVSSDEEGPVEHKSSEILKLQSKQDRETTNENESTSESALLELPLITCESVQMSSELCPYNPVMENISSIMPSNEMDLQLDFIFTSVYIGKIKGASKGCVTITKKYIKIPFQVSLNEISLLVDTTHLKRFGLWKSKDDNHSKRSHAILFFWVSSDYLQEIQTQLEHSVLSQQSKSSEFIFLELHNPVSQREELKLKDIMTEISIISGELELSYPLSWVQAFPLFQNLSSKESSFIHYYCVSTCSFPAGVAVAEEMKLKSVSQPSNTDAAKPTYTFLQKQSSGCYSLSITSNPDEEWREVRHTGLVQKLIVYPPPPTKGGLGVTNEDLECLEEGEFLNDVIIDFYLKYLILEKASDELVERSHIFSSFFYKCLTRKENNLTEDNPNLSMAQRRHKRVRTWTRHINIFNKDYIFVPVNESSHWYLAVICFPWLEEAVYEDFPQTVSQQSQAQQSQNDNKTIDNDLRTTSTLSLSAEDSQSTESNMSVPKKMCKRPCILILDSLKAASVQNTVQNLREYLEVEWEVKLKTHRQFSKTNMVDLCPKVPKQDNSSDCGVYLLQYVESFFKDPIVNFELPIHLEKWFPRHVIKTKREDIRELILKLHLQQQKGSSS
Briefly: inhibition of human SENP7 cleavage activity – biochemical, luminescence, SAR follow-up (AID 504497). In kind it is functional.

Test [4] addresses Heat shock 70 kDa protein 1A (Homo sapiens, UniProt P0DMV8). The test is described as follows: inhibition of Hsp70 binding activity – biochemical, fluorescence polarization, SAR follow-up (AID 1072). (In general: Fluorescence polarisation rises when a labelled molecule tumbles more slowly, as on binding a larger partner.)
In test [5] the target is Exodeoxyribonuclease V (Escherichia coli (strain K12), UniProt P04993+P07648+P08394). Briefly: RecBCD inhibition via phage-restricted bacterial growth – absorbance, V66 E. coli, mutant T4 phage, counter-screen for AddAB inhibitor project, dose response (AID 492957). In kind it is functional, cell-based, Escherichia coli str. K-12 substr. MG1655.
The target of test [6] is Tyrosine-protein kinase JAK2 (Homo sapiens, UniProt O60674). In kind it is functional.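 Further: JAK2 tested as one member of a kinase panel.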
In test [7] the target is Phosphorylase b kinase gamma catalytic chain, liver/testis isoform (Homo sapiens, UniProt P15735). Format: functional.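 Further: PHKG2 measured as one member of a kinome-wide kinase panel.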
Chain of Phosphorylase b kinase gamma catalytic chain, liver/testis isoform (P15735 whole entry, canonical isoform): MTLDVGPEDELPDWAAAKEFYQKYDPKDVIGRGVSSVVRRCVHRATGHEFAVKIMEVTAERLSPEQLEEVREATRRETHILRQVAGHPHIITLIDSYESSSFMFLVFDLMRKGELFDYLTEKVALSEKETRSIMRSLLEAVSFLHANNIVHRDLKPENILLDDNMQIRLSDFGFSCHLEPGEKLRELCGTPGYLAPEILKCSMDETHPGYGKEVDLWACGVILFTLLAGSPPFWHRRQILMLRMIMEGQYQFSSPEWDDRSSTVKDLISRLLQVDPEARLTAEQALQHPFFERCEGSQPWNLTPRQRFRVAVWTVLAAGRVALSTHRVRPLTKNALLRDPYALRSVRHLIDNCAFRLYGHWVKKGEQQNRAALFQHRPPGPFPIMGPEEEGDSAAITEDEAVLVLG
In test [8] the target is RAC-gamma serine/threonine-protein kinase (Homo sapiens, UniProt Q9Y243). Format: functional.
Chain of RAC-gamma serine/threonine-protein kinase (Q9Y243 whole entry): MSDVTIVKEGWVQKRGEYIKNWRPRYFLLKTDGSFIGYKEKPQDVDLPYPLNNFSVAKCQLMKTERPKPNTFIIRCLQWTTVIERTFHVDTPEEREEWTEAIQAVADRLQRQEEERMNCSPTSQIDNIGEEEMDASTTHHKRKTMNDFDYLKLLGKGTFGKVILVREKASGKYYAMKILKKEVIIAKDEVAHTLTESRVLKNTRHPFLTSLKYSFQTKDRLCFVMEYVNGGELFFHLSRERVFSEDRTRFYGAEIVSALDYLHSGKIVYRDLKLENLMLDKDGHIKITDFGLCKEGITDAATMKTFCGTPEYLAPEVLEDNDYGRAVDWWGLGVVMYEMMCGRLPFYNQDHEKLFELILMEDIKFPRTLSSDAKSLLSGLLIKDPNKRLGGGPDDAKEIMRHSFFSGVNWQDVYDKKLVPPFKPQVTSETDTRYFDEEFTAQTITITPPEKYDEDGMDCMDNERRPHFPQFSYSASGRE
Test [9] addresses 5'-AMP-activated protein kinase catalytic subunit alpha-1 (Homo sapiens, UniProt Q13131). Format: functional.
Test [10] has as its target ALK tyrosine kinase receptor (Homo sapiens, UniProt Q9UM73). In kind it is functional.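 Further: ALK tested as one member of a kinase panel screen.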
Test [11] addresses Calcium/calmodulin-dependent protein kinase type II subunit gamma (Homo sapiens, UniProt Q13555). Format: functional.
Test [12] deals with Testis-specific serine/threonine-protein kinase 2 (Homo sapiens, UniProt Q96PF2). In kind it is functional.
In test [13] the target is MAP kinase-activated protein kinase 2 (Homo sapiens, UniProt P49137). In kind it is functional.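 Further: measured as one member of a kinome-wide kinase panel.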
Test [14] concerns the target Serine/threonine-protein kinase PAK 4 (Homo sapiens, UniProt O96013). In kind it is functional.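 Further: value obtained within a kinome profiling panel in which PAK4 was one of the panel members.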
The target of test [15] is Casein kinase I isoform gamma-1 (Homo sapiens, UniProt Q9HCP0). Format: functional.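 Further: measured as the CSNK1G1 member of a kinome profiling panel.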
The target of test [16] is Tyrosine-protein kinase Lyn (Homo sapiens, UniProt P07948). Format: functional.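 Further: lyn as one member of a kinase panel.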
Test [17] concerns the target Mitogen-activated protein kinase 9 (Homo sapiens, UniProt P45984). Format: functional.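 Further: value from a kinome panel profiling assay, MAPK9 panel entry.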
In test [18] the target is Dual specificity tyrosine-phosphorylation-regulated kinase 3 (Homo sapiens, UniProt O43781). Format: functional.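 Further: measured as one member of a broad kinase panel.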
Chain of Dual specificity tyrosine-phosphorylation-regulated kinase 3 (O43781 whole entry): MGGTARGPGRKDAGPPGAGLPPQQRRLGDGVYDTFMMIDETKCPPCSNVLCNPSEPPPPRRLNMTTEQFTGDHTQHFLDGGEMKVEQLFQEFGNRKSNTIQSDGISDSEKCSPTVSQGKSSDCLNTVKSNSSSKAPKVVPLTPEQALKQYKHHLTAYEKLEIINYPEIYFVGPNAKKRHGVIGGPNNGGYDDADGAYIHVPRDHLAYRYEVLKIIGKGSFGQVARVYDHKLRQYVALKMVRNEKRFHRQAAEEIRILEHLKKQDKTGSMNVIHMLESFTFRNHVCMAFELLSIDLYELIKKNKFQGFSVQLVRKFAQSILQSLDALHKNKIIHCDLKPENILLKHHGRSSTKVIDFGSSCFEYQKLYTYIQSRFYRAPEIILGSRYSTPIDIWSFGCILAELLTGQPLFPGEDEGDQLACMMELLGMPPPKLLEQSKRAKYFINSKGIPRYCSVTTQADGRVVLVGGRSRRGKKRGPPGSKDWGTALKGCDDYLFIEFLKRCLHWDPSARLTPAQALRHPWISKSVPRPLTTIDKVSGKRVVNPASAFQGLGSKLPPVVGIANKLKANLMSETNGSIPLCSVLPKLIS
Test [19] addresses Serine/threonine-protein kinase Chk1 (Homo sapiens, UniProt O14757). Format: functional.
The target of test [20] is Interleukin-1 receptor-associated kinase 4 (Homo sapiens, UniProt Q9NWZ3). In kind it is functional.
For test [21], the target named is Cyclin-dependent kinase 7 (Homo sapiens, UniProt P50613). In kind it is functional.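 Further: value comes from a kinome-wide kinase profiling panel in which CDK7 is one member.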
Chain of Cyclin-dependent kinase 7 (P50613 whole entry): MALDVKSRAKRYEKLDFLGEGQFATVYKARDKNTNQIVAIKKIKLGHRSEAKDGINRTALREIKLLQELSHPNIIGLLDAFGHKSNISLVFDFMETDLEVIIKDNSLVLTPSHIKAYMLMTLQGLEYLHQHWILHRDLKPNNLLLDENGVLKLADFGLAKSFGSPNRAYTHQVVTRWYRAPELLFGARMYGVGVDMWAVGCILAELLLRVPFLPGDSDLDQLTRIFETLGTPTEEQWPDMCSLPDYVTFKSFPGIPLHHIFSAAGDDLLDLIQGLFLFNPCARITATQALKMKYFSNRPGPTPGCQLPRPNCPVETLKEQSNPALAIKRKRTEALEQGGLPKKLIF
The target of test [22] is Tyrosine-protein kinase FRK (Homo sapiens, UniProt P42685). In kind it is functional.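 Further: FRK tested as one member of a kinome panel.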
Chain of Tyrosine-protein kinase FRK (P42685 whole entry): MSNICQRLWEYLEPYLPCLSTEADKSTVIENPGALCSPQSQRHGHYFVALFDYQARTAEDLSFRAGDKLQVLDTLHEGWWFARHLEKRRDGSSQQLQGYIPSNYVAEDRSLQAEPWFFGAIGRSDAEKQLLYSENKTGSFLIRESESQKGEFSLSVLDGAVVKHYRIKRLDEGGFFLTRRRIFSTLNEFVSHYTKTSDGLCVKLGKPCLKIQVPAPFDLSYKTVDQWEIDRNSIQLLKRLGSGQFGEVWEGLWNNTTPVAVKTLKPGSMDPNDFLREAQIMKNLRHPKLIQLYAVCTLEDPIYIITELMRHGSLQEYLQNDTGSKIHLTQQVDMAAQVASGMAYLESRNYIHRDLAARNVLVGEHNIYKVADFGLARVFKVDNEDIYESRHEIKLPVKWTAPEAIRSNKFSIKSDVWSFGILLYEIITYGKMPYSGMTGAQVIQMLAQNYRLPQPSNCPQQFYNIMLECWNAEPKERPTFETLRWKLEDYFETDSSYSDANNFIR

The source made the active and inactive calls. Bounds are passed on as bounds.

Here are results for five compounds from ChEMBL document CHEMBL1201862, “PubChem BioAssay data set” (2004).

The term EC50 denotes the concentration that produces a half-maximal response. Usually IC50 stands for the point on the concentration scale where inhibition reaches its midpoint. As a reminder, the Ki is a dissociation constant, usually derived from enzyme kinetics or from competition with a known ligand. For orientation: pKi means the negative decadic logarithm of the Ki, by convention in mol/L.

Chain of Calcium/calmodulin-dependent protein kinase type II subunit gamma (Q13555 whole entry): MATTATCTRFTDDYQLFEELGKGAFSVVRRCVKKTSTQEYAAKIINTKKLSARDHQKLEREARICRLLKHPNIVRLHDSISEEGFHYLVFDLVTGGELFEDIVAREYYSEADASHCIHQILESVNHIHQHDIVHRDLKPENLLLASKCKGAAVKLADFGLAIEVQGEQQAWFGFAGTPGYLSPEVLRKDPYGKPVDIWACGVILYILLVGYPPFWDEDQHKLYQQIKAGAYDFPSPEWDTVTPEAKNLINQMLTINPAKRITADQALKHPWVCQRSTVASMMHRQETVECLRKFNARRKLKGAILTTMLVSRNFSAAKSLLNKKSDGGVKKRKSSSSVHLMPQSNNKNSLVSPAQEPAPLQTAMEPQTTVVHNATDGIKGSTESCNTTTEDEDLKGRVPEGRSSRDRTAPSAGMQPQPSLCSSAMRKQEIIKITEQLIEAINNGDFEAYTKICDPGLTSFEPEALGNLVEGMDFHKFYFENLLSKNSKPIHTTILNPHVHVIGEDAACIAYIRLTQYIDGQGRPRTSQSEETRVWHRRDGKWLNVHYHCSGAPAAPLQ
Chain of Heat shock 70 kDa protein 1A (P0DMV8 whole entry): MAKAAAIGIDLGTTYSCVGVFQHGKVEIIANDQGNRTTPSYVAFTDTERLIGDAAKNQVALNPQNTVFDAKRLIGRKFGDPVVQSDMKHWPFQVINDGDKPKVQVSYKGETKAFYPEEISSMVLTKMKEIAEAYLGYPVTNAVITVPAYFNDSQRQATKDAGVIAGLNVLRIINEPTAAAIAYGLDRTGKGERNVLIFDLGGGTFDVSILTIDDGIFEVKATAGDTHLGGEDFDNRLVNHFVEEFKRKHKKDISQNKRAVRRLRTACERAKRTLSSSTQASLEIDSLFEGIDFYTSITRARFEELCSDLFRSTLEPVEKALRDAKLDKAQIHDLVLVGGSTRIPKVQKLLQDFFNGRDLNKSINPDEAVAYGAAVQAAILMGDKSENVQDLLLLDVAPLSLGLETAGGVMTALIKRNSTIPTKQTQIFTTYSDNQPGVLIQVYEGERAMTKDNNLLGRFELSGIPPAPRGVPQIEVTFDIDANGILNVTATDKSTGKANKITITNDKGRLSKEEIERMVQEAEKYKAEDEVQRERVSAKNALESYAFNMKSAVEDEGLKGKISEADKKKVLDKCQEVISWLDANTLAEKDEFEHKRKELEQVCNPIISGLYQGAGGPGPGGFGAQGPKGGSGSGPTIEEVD
Chain of Mitogen-activated protein kinase 9 (P45984 whole entry): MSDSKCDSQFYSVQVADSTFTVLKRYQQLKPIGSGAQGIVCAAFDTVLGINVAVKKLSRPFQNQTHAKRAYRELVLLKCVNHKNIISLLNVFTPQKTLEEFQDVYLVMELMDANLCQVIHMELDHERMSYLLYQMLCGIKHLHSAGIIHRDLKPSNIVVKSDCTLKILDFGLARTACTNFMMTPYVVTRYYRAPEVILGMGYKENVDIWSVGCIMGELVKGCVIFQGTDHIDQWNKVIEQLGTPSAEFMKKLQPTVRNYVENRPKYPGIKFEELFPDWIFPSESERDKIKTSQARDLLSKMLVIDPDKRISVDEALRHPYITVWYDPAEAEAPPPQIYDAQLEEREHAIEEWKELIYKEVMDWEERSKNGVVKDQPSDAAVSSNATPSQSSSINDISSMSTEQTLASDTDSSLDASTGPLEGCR
Chain of Serine/threonine-protein kinase Chk1 (O14757 whole entry): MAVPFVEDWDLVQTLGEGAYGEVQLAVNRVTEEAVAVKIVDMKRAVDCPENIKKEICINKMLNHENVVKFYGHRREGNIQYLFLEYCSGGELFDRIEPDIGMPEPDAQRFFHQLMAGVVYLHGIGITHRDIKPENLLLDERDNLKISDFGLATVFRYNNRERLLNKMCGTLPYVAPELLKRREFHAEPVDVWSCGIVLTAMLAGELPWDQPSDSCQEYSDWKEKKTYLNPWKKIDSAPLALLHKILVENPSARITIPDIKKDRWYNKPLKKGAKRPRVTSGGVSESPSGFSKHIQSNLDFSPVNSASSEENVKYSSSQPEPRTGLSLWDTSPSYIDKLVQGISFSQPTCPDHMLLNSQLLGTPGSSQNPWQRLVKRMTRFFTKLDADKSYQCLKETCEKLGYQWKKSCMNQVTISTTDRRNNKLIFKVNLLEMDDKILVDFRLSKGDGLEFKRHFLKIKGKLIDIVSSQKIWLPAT
Chain of 5'-AMP-activated protein kinase catalytic subunit alpha-1 (Q13131 whole entry): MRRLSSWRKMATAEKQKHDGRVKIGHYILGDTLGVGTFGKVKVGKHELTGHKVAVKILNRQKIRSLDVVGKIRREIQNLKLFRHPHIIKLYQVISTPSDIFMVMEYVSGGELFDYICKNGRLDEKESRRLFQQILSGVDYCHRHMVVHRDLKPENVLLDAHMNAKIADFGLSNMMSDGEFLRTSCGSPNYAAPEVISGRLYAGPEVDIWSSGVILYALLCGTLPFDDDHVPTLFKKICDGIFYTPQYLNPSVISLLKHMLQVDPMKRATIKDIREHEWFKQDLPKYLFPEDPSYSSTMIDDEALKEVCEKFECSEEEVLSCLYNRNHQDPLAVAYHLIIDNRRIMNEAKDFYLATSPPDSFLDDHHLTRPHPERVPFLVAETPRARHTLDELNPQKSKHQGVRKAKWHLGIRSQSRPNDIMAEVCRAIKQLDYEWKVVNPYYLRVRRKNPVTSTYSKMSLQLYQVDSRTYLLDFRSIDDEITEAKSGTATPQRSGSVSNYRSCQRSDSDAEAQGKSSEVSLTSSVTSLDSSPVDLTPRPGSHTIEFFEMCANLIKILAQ

In the case of `O=C1C=C(N2CCCCC2)c2ccccc2C1=O`, the 50% effective concentration (EC50) was 1.88 µM (active) in test [1] and 17.8 µM (active) in test [2].
Regarding `O=C(CCc1ccccc1)NNc1cc(N2CCCCC2)nc(N2CCCCC2)n1`, the IC50 in test [3] is 57.9 µM (active).
With `O=C(O)C1Nc2c(O)cc(Cl)c([N+](=O)[O-])c2C2C=CCC12` (stereo not given), in [4], the IC50 is 22.4 µM (active).
As for `Oc1ccc(N=Nc2c(O)ccc3ccccc23)cc1`, in test [5], the IC50 is > 118 µM (inactive).
For `Cc1n[nH]c2ccc(-c3cncc(OCC(N)Cc4cccc(Cl)c4)c3)cc12` (stereo not given), the Ki in [6] is 1.26 µM (active); in test [7], 0.794 µM (active); in test [8], 0.00501 µM (active); in test [9], 0.01 µM (active); in [10] it was > 1.26 µM (inactive); in test [11], 0.00398 µM (active). The Ki in test [12] is 1.58 µM (active); in test [13], 0.631 µM (active); in test [14], 0.0316 µM (active); in test [15], 0.0794 µM (active); in [16], > 1.58 µM (inactive); in [17] it was 3.98 µM (active). The Ki in [18] was 0.00501 µM (active); in [19], 6.31 µM (active); in test [20], 0.158 µM (active); in test [21] it was 0.02 µM (active); in [22], > 2.51 µM (inactive). Besides, the pKi in [8] is recorded as 8.3; in test [11], 8.4; in test [21] it was 7.7.
